Reference: patent US20230331731A1, “CRYSTAL FORM OF PYRROLO HETEROCYCLIC DERIVATIVE AND PREPARATION METHOD THEREFOR” (Jiangsu Hengrui Pharmaceuticals Co., Ltd., priority 2020, published 2023)

How the values were obtained:
[1] = Long-term/accelerated stability study; format: physicochemical; details: for Crystal form / Purity, 1 month / physical and chemical stability (conclusion): 1 month; for physical and chemical stability (conclusion): long-term and accelerated stability conditions
Description: 1. The hydrobromide in crystal form α was left to stand under 25° C., 60% RH conditions and 40° C., 75% RH conditions to investigate its stability.
4. The fumarate in crystal form II was subjected to 6-month long-term (25° C., 60% RH) and accelerated (40° C., 75% RH) stability studies.

[2] = Influencing factor stability study; format: physicochemical; details: for physical and chemical stability (conclusion): high-temperature conditions (40° C. and 60° C.) and high-humidity conditions (75% and 92.5%)

## Br.Br.Cn1nccc1Nc1nccc(-c2cc3n(c2)C(=O)N([C@H](CO)c2cccc(Cl)c2)C3)n1 [Hydrobromide in crystal form β]
[1]; 25° C., 60%RH
  Crystal form: β
  Purity, 1 month: 98.99%
[1]; 40° C., 75%RH
  Crystal form: β
  Purity, 1 month: 99.00%
[1]
  Purity, Initial: 99.17%
  physical and chemical stability (conclusion): good physical and chemical stability
[2]; 40° C., open, 7 days
  Color and appearance: Off-white solid
  Crystal form: Did not change
  Main peak purity: 99.13%
[2]; 40° C., open, 14 days
  Color and appearance: Off-white solid
  Crystal form: Did not change
  Main peak purity: 99.07%
[2]; 40° C., open, 30 days
  Color and appearance: Off-white solid
  Crystal form: Did not change
  Main peak purity: 98.96%
[2]; 60° C., open, 7 days
  Color and appearance: Off-white solid
  Crystal form: Did not change
  Main peak purity: 98.82%
[2]; 60° C., open, 14 days
  Color and appearance: Off-white solid
  Crystal form: Did not change
  Main peak purity: 98.82%
[2]; 60° C., open, 30 days
  Color and appearance: Off-white solid
  Crystal form: Did not change
  Main peak purity: 98.88%
[2]; 75% RH, open, 7 days
  Color and appearance: Off-white solid
  Crystal form: Did not change
  Main peak purity: 99.13%
[2]; 75% RH, open, 14 days
  Color and appearance: Off-white solid
  Crystal form: Did not change
  Main peak purity: 99.11%
[2]; 75% RH, open, 30 days
  Color and appearance: Off-white solid
  Crystal form: Did not change
  Main peak purity: 99.11%
[2]; 92.5% RH, open, 7 days
  Color and appearance: Off-white solid
  Crystal form: Did not change
  Main peak purity: 99.09%
[2]; 92.5% RH, open, 14 days
  Color and appearance: Off-white solid
  Crystal form: Did not change
  Main peak purity: 99.15%
[2]; 92.5% RH, open, 30 days
  Color and appearance: Off-white solid
  Crystal form: Did not change
  Main peak purity: 98.93%
[2]; 4500 Lux, open, 7 days
  Color and appearance: Off-white solid
  Crystal form: Did not change
  Main peak purity: 98.99%
[2]; 4500 Lux, open, 14 days
  Color and appearance: Off-white solid
  Crystal form: Did not change
  Main peak purity: 98.54%
[2]; 4500 Lux, open, 30 days
  Color and appearance: Off-white solid
  Crystal form: Did not change
  Main peak purity: 98.28%
[2]; Initial, 0 days
  Color and appearance: Off-white solid
  Crystal form: Crystal form β
  Main peak purity: 99.12%
[2]; 30 days
  physical and chemical stability (conclusion): relatively good physical and chemical stability

## Cn1nccc1Nc1nccc(-c2cc3n(c2)C(=O)N([C@H](CO)c2cccc(Cl)c2)C3)n1.Cn1nccc1Nc1nccc(-c2cc3n(c2)C(=O)N([C@H](CO)c2cccc(Cl)c2)C3)n1.O=C(O)/C=C/C(=O)O [Fumarate in crystal form IV]
[1]; 25° C., 60%RH
  Purity, 1 month: 99.40%
[1]; 40° C., 75%RH
  Purity, 1 month: 99.34%
[1]
  Purity, Initial: 99.46%
  physical and chemical stability (conclusion): good physical and chemical stability
[2]; 40° C., open, 7 days
  Color and appearance: Pale yellow solid
  Crystal form: Did not change
  Main peak purity: 99.46%
[2]; 40° C., open, 14 days
  Color and appearance: Pale yellow solid
  Crystal form: Did not change
  Main peak purity: 99.47%
[2]; 40° C., open, 30 days
  Color and appearance: Pale yellow solid
  Crystal form: Did not change
  Main peak purity: 99.26%
[2]; 60° C., open, 7 days
  Color and appearance: Pale yellow solid
  Crystal form: Did not change
  Main peak purity: 99.45%
[2]; 60° C., open, 14 days
  Color and appearance: Pale yellow solid
  Crystal form: Did not change
  Main peak purity: 99.46%
[2]; 60° C., open, 30 days
  Color and appearance: Pale yellow solid
  Crystal form: Did not change
  Main peak purity: 99.23%
[2]; 75% RH, open, 7 days
  Color and appearance: Pale yellow solid
  Crystal form: Did not change
  Main peak purity: 99.52%
[2]; 75% RH, open, 14 days
  Color and appearance: Pale yellow solid
  Crystal form: Did not change
  Main peak purity: 99.43%
[2]; 75% RH, open, 30 days
  Color and appearance: Pale yellow solid
  Crystal form: Did not change
  Main peak purity: 99.36%
[2]; 92.5% RH, open, 7 days
  Color and appearance: Pale yellow solid
  Crystal form: Did not change
  Main peak purity: 99.47%
[2]; 92.5% RH, open, 14 days
  Color and appearance: Pale yellow solid
  Crystal form: Did not change
  Main peak purity: 99.45%
[2]; 92.5% RH, open, 30 days
  Color and appearance: Pale yellow solid
  Crystal form: Did not change
  Main peak purity: 99.40%
[2]; 4500 Lux, open, 7 days
  Color and appearance: Pale yellow solid
  Crystal form: Did not change
  Main peak purity: 99.43%
[2]; 4500 Lux, open, 14 days
  Color and appearance: Pale yellow solid
  Crystal form: Did not change
  Main peak purity: 99.29%
[2]; 4500 Lux, open, 30 days
  Color and appearance: Pale yellow solid
  Crystal form: Did not change
  Main peak purity: 99.19%
[2]; Initial, 0 days
  Color and appearance: Pale yellow solid
  Crystal form: Crystal form IV
  Main peak purity: 99.47%
[2]; 30 days
  physical and chemical stability (conclusion): relatively good physical and chemical stability
